The record followed here is patent US20230257396A1, “MACROCYCLES AND THEIR USE” (BLOSSOMHILL THERAPEUTICS, INC., priority 2020, published 2023).

Structures are written as SMILES. Positions count from the first letter of the chain named.

Common to all, as to experiment: KINOMEscan kinase binding assay (Eurofins/DiscoveRx), % Ctrl
Test [1] addresses T1, kinases (Homo sapiens, UniProt P36888, D835H).
T1 construct: purchased Eurofins/DiscoveRx; host or cells: E. coli BL21-derived host (T7 phage display) for most kinases; HEK-293 for the rest
T1 sequence (P36888 27-993 D835H): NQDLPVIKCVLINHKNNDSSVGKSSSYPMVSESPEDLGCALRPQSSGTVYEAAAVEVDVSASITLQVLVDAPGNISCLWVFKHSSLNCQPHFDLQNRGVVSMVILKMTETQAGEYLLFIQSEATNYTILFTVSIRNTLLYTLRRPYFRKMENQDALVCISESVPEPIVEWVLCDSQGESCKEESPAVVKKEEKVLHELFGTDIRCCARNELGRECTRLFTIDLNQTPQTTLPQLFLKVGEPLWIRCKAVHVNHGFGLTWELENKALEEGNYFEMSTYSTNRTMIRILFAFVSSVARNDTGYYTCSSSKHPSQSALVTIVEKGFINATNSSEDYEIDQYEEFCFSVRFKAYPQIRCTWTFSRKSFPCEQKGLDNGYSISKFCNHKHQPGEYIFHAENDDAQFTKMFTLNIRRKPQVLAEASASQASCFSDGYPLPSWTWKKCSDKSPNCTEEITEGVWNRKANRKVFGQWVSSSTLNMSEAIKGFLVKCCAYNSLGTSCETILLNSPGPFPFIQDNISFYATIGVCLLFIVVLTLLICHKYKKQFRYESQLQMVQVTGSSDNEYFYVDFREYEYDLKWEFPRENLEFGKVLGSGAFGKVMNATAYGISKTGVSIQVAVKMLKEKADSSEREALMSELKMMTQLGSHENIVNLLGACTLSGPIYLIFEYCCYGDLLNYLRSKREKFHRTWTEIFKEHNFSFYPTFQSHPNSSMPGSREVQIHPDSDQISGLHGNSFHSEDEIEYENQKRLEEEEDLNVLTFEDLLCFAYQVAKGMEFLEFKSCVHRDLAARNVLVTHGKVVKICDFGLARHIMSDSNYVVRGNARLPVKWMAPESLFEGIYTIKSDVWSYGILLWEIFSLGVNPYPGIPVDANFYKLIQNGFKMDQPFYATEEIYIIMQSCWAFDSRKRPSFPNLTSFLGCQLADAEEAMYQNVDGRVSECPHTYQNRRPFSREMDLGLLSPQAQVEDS
The procedure, abridged:
(§1)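 Read-out is qPCR of kinase eluted from ligand-coated streptavidin beads after 1 h room-temperature competition with test compound. Values are % Ctrl at the tested concentration, lower meaning tighter binding.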

Test [2] concerns the target T2, kinases (Homo sapiens, UniProt P00519, H396P).
T2 construct: purchased Eurofins/DiscoveRx; host or cells: E. coli BL21-derived host (T7 phage display) for most kinases; HEK-293 for the rest
The procedure, abridged:
as §1

Test [3] concerns the target T3, kinases (Homo sapiens, UniProt P00533, DEL746-750).
T3 construct: purchased Eurofins/DiscoveRx; host or cells: E. coli BL21-derived host (T7 phage display) for most kinases; HEK-293 for the rest
The gist of the method:
as §1

Test [4] deals with T4, kinases (Homo sapiens, UniProt P36888, R834Q).
T4 construct: purchased Eurofins/DiscoveRx; host or cells: E. coli BL21-derived host (T7 phage display) for most kinases; HEK-293 for the rest
T4 sequence (P36888 27-993 R834Q): T1 sequence (P36888 27-993 D835H) with R808Q, H809D
The gist of the method:
as §1

The target of test [5] is T5, kinases (Homo sapiens, UniProt P10721, D816V).
T5 construct: purchased Eurofins/DiscoveRx; host or cells: E. coli BL21-derived host (T7 phage display) for most kinases; HEK-293 for the rest
T5 sequence (P10721 26-976 D816V): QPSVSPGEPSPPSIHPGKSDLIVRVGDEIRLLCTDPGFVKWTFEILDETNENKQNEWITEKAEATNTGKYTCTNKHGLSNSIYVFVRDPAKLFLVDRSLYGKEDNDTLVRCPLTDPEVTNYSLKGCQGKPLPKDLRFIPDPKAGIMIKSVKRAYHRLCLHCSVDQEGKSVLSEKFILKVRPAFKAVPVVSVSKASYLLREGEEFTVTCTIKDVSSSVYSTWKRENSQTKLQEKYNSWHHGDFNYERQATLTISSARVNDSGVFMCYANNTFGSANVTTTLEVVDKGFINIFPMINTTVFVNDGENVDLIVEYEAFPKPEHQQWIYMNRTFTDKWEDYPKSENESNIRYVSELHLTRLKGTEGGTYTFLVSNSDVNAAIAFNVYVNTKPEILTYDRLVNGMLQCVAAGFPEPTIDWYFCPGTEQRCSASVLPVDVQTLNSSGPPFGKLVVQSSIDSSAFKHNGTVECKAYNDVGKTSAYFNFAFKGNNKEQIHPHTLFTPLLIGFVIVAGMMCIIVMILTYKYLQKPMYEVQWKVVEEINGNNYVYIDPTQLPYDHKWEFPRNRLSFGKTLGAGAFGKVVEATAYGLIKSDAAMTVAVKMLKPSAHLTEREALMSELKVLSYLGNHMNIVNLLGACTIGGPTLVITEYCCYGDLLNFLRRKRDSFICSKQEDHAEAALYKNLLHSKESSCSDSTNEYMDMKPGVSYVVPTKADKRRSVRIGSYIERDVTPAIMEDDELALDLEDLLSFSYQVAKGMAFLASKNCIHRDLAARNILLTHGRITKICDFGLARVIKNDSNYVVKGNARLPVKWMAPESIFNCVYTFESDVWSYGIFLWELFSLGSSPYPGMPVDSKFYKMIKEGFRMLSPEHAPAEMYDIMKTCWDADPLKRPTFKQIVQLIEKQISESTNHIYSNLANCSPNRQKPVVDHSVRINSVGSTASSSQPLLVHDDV
The procedure, abridged:
as §1

[6] abbreviates: target ABL1(H396P)-nonphosphorylated; 1 μM.
Where [7] appears, read: target ABL1(H396P)-phosphorylated; 1 μM.
The mark [8] stands for this setting: target EGFR(E746-A750del); 1 μM.
The mark [9] stands for this setting: 1 μM; target ABL1(H396P)-nonphosphorylated.
Setting [10] is: 1 μM; target ABL1(H396P)-phosphorylated.
The mark [11] stands for this setting: 1 μM; target EGFR(E746-A750del).

Take `Cc1nn(C)c2c1-c1ccc3c(c1)/C(=C/c1[nH]ccc1C(=O)N(C)CCCO2)C(=O)N3` [Ex. 150, [3a(4)Z]-9,14,16-trimethyl-10,11,13,14-tetrahydro-2H-1,17-(ethanediylidene)pyrazolo[4,3-m]dipyrrolo[3,2-f:3′,4′-i][1,4]oxazacyclopentadecine-3,8(5H,9H)-dione]: the “% Ctrl, FLT3(D835H)” value in test [1] (target FLT3(D835H); 1 μM) was 62 % Ctrl. In addition, in test [2] (setting [6]), the “% Ctrl, ABL1(H396P)-nonphosphorylated” value is on record as 100 % Ctrl. The “% Ctrl, ABL1(H396P)-phosphorylated” value in test [2] (setting [7]) came to 100 % Ctrl. Besides, the “% Ctrl, EGFR(E746-A750del)” value in test [3] (setting [8]) is recorded as 98 % Ctrl. In addition, in test [4] (target FLT3(R834Q); 1 μM), the “% Ctrl, FLT3(R834Q)” value worked out at 69 % Ctrl. Besides, in test [5] (target KIT(D816V); 1 μM), the “% Ctrl, KIT(D816V)” value stood at 89 % Ctrl.
`CN1CCSCCOc2cc3c(cc2Cl)NC(=O)/C3=C\c2[nH]ccc2C1=O` [Ex. 153]: the “% Ctrl, FLT3(D835H)” value in test [1] (target FLT3(D835H); 1 μM) amounted to 0.3 % Ctrl. Also, in test [2] (setting [6]), the “% Ctrl, ABL1(H396P)-nonphosphorylated” value is on record as 0.8 % Ctrl. Besides, in test [2] (setting [7]), the “% Ctrl, ABL1(H396P)-phosphorylated” value stood at 16 % Ctrl. The “% Ctrl, EGFR(E746-A750del)” value in test [3] (setting [8]) turned out to be 56 % Ctrl. In addition, in test [4] (target FLT3(R834Q); 1 μM), the “% Ctrl, FLT3(R834Q)” value was 19 % Ctrl. Also, the “% Ctrl, KIT(D816V)” value in test [5] (target KIT(D816V); 1 μM) worked out at 6.8 % Ctrl.
With `Cc1cc2c([nH]1)/C=C1\C(=O)Nc3ccc(cc31)-c1c(noc1C(C)C)COCCN(C)C2=O` [Ex. 161, [3a(4)Z]-9-methyl-16-(propan-2-yl)-10,11-dihydro-2H,13H-1,17-(ethanediylidene)[1,2]oxazolo[4,3-m]dipyrrolo[3,2-f:3′,4′-i][1,4]oxazacyclopentadecine-3,8(5H,9H)-dione], the “% Ctrl, FLT3(D835H)” value in test [1] (1 μM; target FLT3(D835H)) came out at 48 % Ctrl. The “% Ctrl, ABL1(H396P)-nonphosphorylated” value in test [2] (setting [9]) was found to be 91 % Ctrl. The “% Ctrl, ABL1(H396P)-phosphorylated” value in test [2] (setting [10]) is 100 % Ctrl. Further, the “% Ctrl, EGFR(E746-A750del)” value in test [3] (setting [11]) is recorded as 87 % Ctrl. Further, the “% Ctrl, FLT3(R834Q)” value in test [4] (1 μM; target FLT3(R834Q)) came to 100 % Ctrl. Further, the “% Ctrl, KIT(D816V)” value in test [5] (1 μM; target KIT(D816V)) stood at 100 % Ctrl.
Regarding `CN1CCOc2cc3c(cc2Cl)NC(=O)/C3=C\c2[nH]ccc2C(=O)N(C)CC1` [Ex. 164, [16a(17)Z]-19-chloro-2,5,8-trimethyl-5,6,7,8,9,10-hexahydro-12,14-(ethanediylidene)dipyrrolo[3,2-i:3′,4′-l][1,4,7]oxadiazacyclopentadecine-4,16(1H,15H)-dione], in test [1] (1 μM; target FLT3(D835H)), the “% Ctrl, FLT3(D835H)” value is 0.3 % Ctrl. For the same molecule, in test [2] (setting [9]), the “% Ctrl, ABL1(H396P)-nonphosphorylated” value is given as 0 % Ctrl. The “% Ctrl, ABL1(H396P)-phosphorylated” value in test [2] (setting [10]) worked out at 0 % Ctrl. Further, in test [3] (setting [11]), the “% Ctrl, EGFR(E746-A750del)” value is 18 % Ctrl. Moreover, in test [4] (1 μM; target FLT3(R834Q)), the “% Ctrl, FLT3(R834Q)” value stood at 13 % Ctrl. For the same molecule, the “% Ctrl, KIT(D816V)” value in test [5] (1 μM; target KIT(D816V)) amounted to 3.3 % Ctrl.
Turning to `Cc1cc2c([nH]1)/C=C1\C(=O)Nc3ccc(cc31)-c1cnn(C)c1OCCCN(C)C2=O` [Ex. 166, [3a(4)Z]-9,14-dimethyl-9,10,11,12-tetrahydro-14H-1,17-(ethanediylidene)pyrazolo[4,3-n]dipyrrolo[3,2-g:3′,4′-j][1,5]oxazacyclopentadecine-3,8(2H,5H)-dione], the “% Ctrl, FLT3(D835H)” value in test [1] (1 μM; target FLT3(D835H)) is 0.7 % Ctrl. Besides, the “% Ctrl, ABL1(H396P)-nonphosphorylated” value in test [2] (setting [9]) is 0.7 % Ctrl. Further, the “% Ctrl, ABL1(H396P)-phosphorylated” value in test [2] (setting [10]) is recorded as 4.3 % Ctrl. Also, the “% Ctrl, EGFR(E746-A750del)” value in test [3] (setting [11]) was determined as 84 % Ctrl. In addition, the “% Ctrl, FLT3(R834Q)” value in test [4] (1 μM; target FLT3(R834Q)) came to 2.1 % Ctrl. The “% Ctrl, KIT(D816V)” value in test [5] (1 μM; target KIT(D816V)) is given as 2.8 % Ctrl.
On to `Cc1cc2c([nH]1)/C=C1\C(=O)Nc3cc(Cl)c(cc31)SCCOCCN(C)C2=O` [Ex. 169, [16a(17)Z]-19-chloro-5-methyl-6,7,9,10-tetrahydro-1H-12,14-(ethanediylidene)dipyrrolo[3,4-g:2′,3′-j][1,4,13]oxathiazacyclopentadecine-4,16(5H,15H)-dione], for which, in test [1] (1 μM; target FLT3(D835H)), the “% Ctrl, FLT3(D835H)” value was determined as 0.1 % Ctrl. Also, the “% Ctrl, ABL1(H396P)-nonphosphorylated” value in test [2] (setting [9]) came to 0 % Ctrl. Besides, in test [2] (setting [10]), the “% Ctrl, ABL1(H396P)-phosphorylated” value worked out at 0 % Ctrl. Also, the “% Ctrl, EGFR(E746-A750del)” value in test [3] (setting [11]) came to 9.9 % Ctrl. For the same molecule, the “% Ctrl, FLT3(R834Q)” value in test [4] (1 μM; target FLT3(R834Q)) was 5.9 % Ctrl. Further, in test [5] (1 μM; target KIT(D816V)), the “% Ctrl, KIT(D816V)” value is 1.6 % Ctrl.
For the molecule `Cc1cc2c([nH]1)/C=C1\C(=O)Nc3cnc(cc31)-c1cnn(C)c1CN(C)CCN(C)C2=O` [Ex. 172, [3a(4)Z]-6,9,12,14-tetramethyl-9,10,11,12,13,14-hexahydro-17,1-(azenometheno)pyrazolo[4,3-m]dipyrrolo[3,2-f:3′,4′-i][1,4]diazacyclopentadecine-3,8(2H,5H)-dione], the “% Ctrl, FLT3(D835H)” value in test [1] (1 μM; target FLT3(D835H)) worked out at 4.2 % Ctrl. The “% Ctrl, ABL1(H396P)-nonphosphorylated” value in test [2] (setting [9]) came to 0 % Ctrl. The “% Ctrl, ABL1(H396P)-phosphorylated” value in test [2] (setting [10]) is recorded as 0.1 % Ctrl. The “% Ctrl, EGFR(E746-A750del)” value in test [3] (setting [11]) is 43 % Ctrl. The “% Ctrl, FLT3(R834Q)” value in test [4] (1 μM; target FLT3(R834Q)) is recorded as 16 % Ctrl. Also, the “% Ctrl, KIT(D816V)” value in test [5] (1 μM; target KIT(D816V)) came out at 0.8 % Ctrl.
